Legend:
[1] = target: T1, PTP1B (human recombinant) (Homo sapiens, UniProt P18031); assay: PTP1B inhibitory assay with pNPP substrate, with Dixon and Lineweaver-Burk kinetics; format: biochemical; conditions: for Protein Tyrosine Phosphatase 1B Inhibition Type: determined by Dixon and Lineweaver-Burk plots; for Ki: determined by the Dixon plot, read-out: Protein Tyrosine Phosphatase 1B Ki Value; for IC50: pNPP substrate, mean ± SEM of triplicate, read-out: Protein Tyrosine Phosphatase 1B IC50
T1 construct: purchased Biomol International LP (Plymouth Meeting, Pennsylvania, USA)
T1 sequence (P18031 1-435): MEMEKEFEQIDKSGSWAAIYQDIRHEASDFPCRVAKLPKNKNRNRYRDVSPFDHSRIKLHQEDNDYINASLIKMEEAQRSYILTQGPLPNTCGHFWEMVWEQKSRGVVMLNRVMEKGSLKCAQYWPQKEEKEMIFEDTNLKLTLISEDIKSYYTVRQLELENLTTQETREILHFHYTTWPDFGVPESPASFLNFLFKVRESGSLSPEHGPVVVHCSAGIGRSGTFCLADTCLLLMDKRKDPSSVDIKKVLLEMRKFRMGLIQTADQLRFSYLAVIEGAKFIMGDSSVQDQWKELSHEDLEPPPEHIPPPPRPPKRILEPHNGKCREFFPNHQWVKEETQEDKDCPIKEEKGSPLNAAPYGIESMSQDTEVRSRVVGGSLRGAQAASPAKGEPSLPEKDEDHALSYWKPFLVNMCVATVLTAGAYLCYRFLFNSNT
Protocol: The inhibitory activity of PTP1B has been tested using pNPP previously reported in our paper. The amount of p-nitrophenyl produced after enzymatic dephosphorylation of pNPP was calculated using a microplate spectrophotometer (Molecular Devices) to calculate absorbance at 405 nm.
(§1) Two kinetic methods using Lineweaver-Burk and Dixon plots have been complemented for the determination of the kinetic process. PTP1B inhibition mode was calculated at different pNPP substrate concentration (0.5, 1.0, and 2.0 mM) in the absence or presence of different coumarins test concentrations (0, 0.8, 4.0, and 20.0 µM for (+)-trans-decursidinol; 0, 2.0, 10.0, and 50 µM for Pd-C-I and Pd-C-II; 0, 4.0, 20.0, and 100 µM for Pd-C-III) using Lineweaver-Burk and Dixon plots. By monitoring the effects of different concentrations of the substrates in the Dixon plots (single reciprocal plot), each enzymatic inhibition of test coumarins was assessed. Additionally, in the presence of different concentrations of substrate: 2.5, 1.25, and 0.625 mM pNPG, the Lineweaver-Burk and Dixon plots for α-glucosidase inhibition of coumarins were also performed. The test concentrations of the coumarins in the α-glucosidase kinetic analysis were as follows 0, 7.81, 15.62, 31.25, and 62.5 µM for (+)-trans-decursidinol, Pd-C-I, and Pd-C-II; 0, 15.62, 31.25, 62.5, and 125 µM for Pd-C-III. The PTP1B and α-glucosidase assay methods were the same for both enzymatic procedures. The inhibition constants (Ki) were calculated by interpretation of the Dixon plots, where the value of the x-axis means -Ki.

[2] = system: PTP1B expression in insulin-resistant HepG2 cells; assay: PTP1B expression level by Western blot; format: cell-based, human
Protocol: (§2) With minor modifications, the insulin resistant HepG2 cell model was developed according to the previous method. In short, in 96-well plats (2 × 10^5 cells/well), HepG2 cells were cultured. When they reached a confluence, 10^−6 M insulin was treated for 24 h on serum-free MEM to induce insulin resistance, then the cells were incubated for 30 min with 100 nM insulin and harvested for assays as described below.
Insulin-resistant HepG2 cells (5 × 10^5 cells/well) were treated for 24 h in 6-well plates with different concentrations of coumarins. The cells were washed with ice-cold PBS three times, collected, then lysed with a sample buffer [50 mM (4-(2-hydroxyethyl)-1-piperazineethanessulfonic acid) pH 7.5, 150 mM NaCl, 2.5 mM EDTA, 0.5% NP-40, 1 mM PMSF, 1 mM DTT, 0.2% aprotinin, 0.5% leupeptin, 20 mM NaF, and 1 mM Na3VO4] on ice after stimulation with 100 nM insulin at 37 °C for 30 min. Insoluble materials were extracted by centrifugation for 20 min at 25,000 × g after incubation for 30 min. An updated Bradford protein assay kit calculated the protein concentrations. Total protein (40 μg) was electrophoresed into a polyvinylidene difluoride (PVDF) membrane by use of a dodecyl sulfate-polyacrylamide gel electrophoresis (SDS-PAGE). In a blocking buffer, membranes were blocked (5% skim milk in Tris-buffered saline containing 0.1% Tween 20 (TBST) and incubated overnight at 4 °C with primary antibodies, followed by incubation at room temperature for 4 h with suitable secondary antibodies. Three times for 30 min with TBST, the membranes were washed. The Supersignal West Pico chemiluminescence substrate (Pierce, Rockford, IL, USA) has been used to visualize the protein bands and pictured on X-ray film (Kodak, Rochester, NY, USA) according to the manufacturer’s instructions. Using CS analyzer software (Atto Corp., Tokyo, Japan), bands were scanned and quantitated and the control was set to 1. As the internal control, β-actin was used. For determining the molecular weights of protein bands, prestained blue protein markers were used. Comparisons were made between mean band densities in same gels. Autoradiography visualized protein bands and measured the intensities using Quantity One software (Bio-Rad Laboratories, Hercules, CA, USA).

[3] = system: t-BHP-treated HepG2 cells; assay: Intracellular ROS level in t-BHP-treated HepG2 cells (DCFH-DA); format: cell-based, human; conditions: 200 μM t-BHP; for ROS generation: 10–40 μM
Protocol: A fluorometric assay was used to measure the intracellular ROS level in HepG2 cells applying the oxidant-sensitive fluorescence probe 2, DCFH-DA [47]. In order to determine the extent of intracellular ROS scavenging activity, HepG2 cells were seeded into black 96-well plates at a density of 2.0 × 10^5 cells/well and incubated with coumarins at a concentrations range of 2.5–40 µM for 1 h. To induce ROS production, cells were subsequently exposed to 200 µM tert-butyl hydroperoxide (t-BHP) for 30 min and were then incubated for 30 min with DCFH-DA (20 μM). At an excitation wavelength of 485 nm and an emission wavelength of 530 nm, the resulting fluorescence intensities were measured using a fluorescence microplate reader (FL × 800; Bio-Tek Instruments Inc., Winooski, UT, USA).

[4] = system: insulin-resistant HepG2 cells; assay: 2-NBDG glucose uptake assay; format: cell-based, human; conditions: 24 h, insulin-stimulated 2-NBDG uptake
Protocol: as §2
In accordance with a previous method the glucose uptake assay was established with some modifications. Briefly, HepG2 cells were cultured in 96-well plate to confluence and then treated with 10^−6 M insulin for 24 h to induce insulin resistance (based on a 49% decrease in glucose uptake) (data not shown). Different coumarins (5–40 µM) or 10 µM metformin (non-cytotoxic concentration) concentrations were added and incubated for 24 h, followed by 100 nM insulin and cells incubation for 30 min, respectively. 2-NBDG uptake was measured following this incubation. The cells were incubated with 40 μM of 2-NBDG (dissolved in PBS with 1% BSA) for 20 min. The cells were washed thrice with ice-cold PBS to avoid the reaction, and the fluorescence intensity of 2-NBDG was calculated at 485 nm of excitation and 528 nm of emission on a microplate reader (Bio-Tek Instruments Inc., Winooski, VT, USA). Five replication wells have been set up, and three times each experiment has been replicated.

[5] = Total ROS generation inhibitory activity (rat kidney homogenate, DCFH-DA); format: biochemical; conditions: mean ± SEM of triplicate
Protocol: The generation of ROS was calculated using the ROS-sensitive fluorescence indicator (DCFH-DA) of 7-dichlorofluorescein diacetate. In a 50 mM potassium phosphate buffer, rat kidney homogenates (Tissue bank from Pusan National University, Busan, S. Korea) were prepared from the kidneys of newly killed male Wistar rats weighing between 150–200 g and 10 μg of each test sample was applied to 190 μL of kidney post mitochondrial fraction. The mixture was loaded in a potassium phosphate buffer with 50 μL of DCFH-DA (12.5 mM) and shaken for 5 min. On a microplate fluorescence spectrophotometer FLX 800 (Bio-Tek Instruments Inc., Winooski, UT, USA), the fluorescence of 2′,7′-dichlorofluorescein (DCF), the oxidation product from DCFH-DA, was measured at an excitation wavelength of 485 nm and an emission wavelength of 530 nm for 30 min. As a positive control, Trolox, was used.

yeast α-glucosidase = yeast α-glucosidase (Saccharomyces cerevisiae, UniProt P53341); assay: α-Glucosidase inhibitory assay with pNPG substrate, with Dixon and Lineweaver-Burk kinetics; format: biochemical; conditions: determined by Dixon and Lineweaver-Burk plots
Protocol: The enzyme inhibition analysis was carried out using the technique previously reported in our paper. The absorbance was recorded at 405 nm immediately afterward using the microplate spectrophotometer (Molecular Devices, Sunnyvale, CA, USA).
as §1

[6] = ONOO− scavenging activity (DHR 123); format: biochemical; conditions: mean ± SEM of triplicate
Protocol: ONOO^− scavenging activity was measured using a slight modification of the method reported by Kooy’s that monitors output of fluorescent rhodamine 123 from non-fluorescent DHR 123 in the presence of ONOO^−. The rhodamine buffer (pH 7.4) consisted of 90 mM sodium chloride, 50 mM sodium phosphate dibasic, 5 mM potassium chloride, 100 µM diethylenetriaminepentaacetic acid and 50 mM sodium phosphate monobasic. DHR 123 final concentration was 5 µM. The buffer used in this assay was prepared and put on ice before use. In 10% DMSO, the samples were dissolved and authentic ONOO^− (10 µM) dissolved in 0.3 N sodium hydroxide was added. Background and final fluorescent intensities were measured after 5 min. The fluorescence intensity of the oxidized DHR 123 was measured with a microplate fluorescence reader (Bio-Tek Instruments, Inc., FLx 800, Winooski, UT, USA) on the excitation and emission wavelengths of 480 and 530 nm, respectively. As a standard control, L-penicillamine was used.

[7] = Inhibition of ONOO−-mediated albumin (protein tyrosine) nitration, Western blot; format: biochemical
Protocol: ONOO^−-mediated protein tyrosine nitration was evaluated with minor modifications by using in our previously reported method.

[8] = Homo sapiens, HepG2, pretreated 1 h, read-out: ROS production, inhibition

Chain of yeast α-glucosidase (P53341 whole entry): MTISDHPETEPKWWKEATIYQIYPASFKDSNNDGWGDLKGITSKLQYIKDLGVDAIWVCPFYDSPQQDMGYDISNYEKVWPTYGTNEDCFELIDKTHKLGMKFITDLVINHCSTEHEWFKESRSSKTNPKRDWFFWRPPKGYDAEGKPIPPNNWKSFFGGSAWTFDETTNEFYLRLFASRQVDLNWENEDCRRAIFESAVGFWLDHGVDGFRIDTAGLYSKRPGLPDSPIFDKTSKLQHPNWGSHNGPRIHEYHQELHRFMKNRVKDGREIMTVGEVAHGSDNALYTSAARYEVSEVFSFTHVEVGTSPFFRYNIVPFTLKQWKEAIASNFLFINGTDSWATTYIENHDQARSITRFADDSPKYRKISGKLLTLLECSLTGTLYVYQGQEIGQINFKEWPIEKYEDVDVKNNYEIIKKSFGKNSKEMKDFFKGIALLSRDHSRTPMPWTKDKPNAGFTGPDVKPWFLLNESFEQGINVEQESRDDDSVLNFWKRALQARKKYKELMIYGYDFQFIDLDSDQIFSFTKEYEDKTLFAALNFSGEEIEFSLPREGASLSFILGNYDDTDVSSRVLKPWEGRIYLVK

Structure (SMILES)	Protein Tyrosine Phosphatase 1B Inhibition Type [1]	Ki [1] [µM]	IC50 [1] [µM]	fold more active than decursinol ([1]; versus decursinol of the earlier work, enzyme not named in the sentence (PTP1B and α-glucosidase discussed)) [times]	IC50 [5] [µM]	α-Glucosidase Inhibition Type (yeast α-glucosidase)	IC50 [6] [µM]	PTP1B expression ([2]; at 10 and 15 µM, 24 h)	inhibition at 5 µM ([3]; Homo sapiens, HepG2, 5 μM, pretreated 1 h, read-out: ROS production, inhibition) [%]	inhibition at 10 µM [3, 8] [%]	inhibition at 15 µM ([3]; Homo sapiens, HepG2, 15 μM, pretreated 1 h, read-out: ROS production, inhibition) [%]	relative glucose uptake percentage ([4]; 15 µM) [%]	ONOO−-mediated albumin nitration ([7]; pretreatment at 5–40 µM)	PTP1B expression ([2]; concentration not given)	ROS generation [3]	relative glucose uptake percentage ([4]; 40 µM) [%]	ONOO−-mediated albumin nitration ([7]; pretreatment at 12.5–100 µM)	PTP1B expression ([2]; at 20 and 40 µM, 24 h)	relative glucose uptake percentage ([4]; 10 µM) [%]
CC1(C)Oc2cc3oc(=O)ccc3cc2[C@@H](O)[C@@H]1O [(+)-trans-decursidinol]	Competitive	2.84	2.33 ± 0.07	25	9.77 ± 0.32	Competitive	4.57 ± 0.21	diminished PTP1B’s expression	75.5	57.5	43.4	125	significantly inhibited in a concentration-dependent manner	–	–	–	–	–	–
CC(C)(S)[C@H](N)C(=O)O [L-Penicillamine, L-penicillamine, reference compound]	–	–	–	–	–	–	1.86 ± 0.11	–	–	–	–	–	–	–	–	–	–	–	–
C/C=C\C(=O)O[C@H]1[C@H](OC(C)=O)c2cc3ccc(=O)oc3cc2OC1(C)C [Pd-C-III]	Mixed	16	12 ± 0.43	–	9.69 ± 0.21	Noncompetitive	1.44 ± 0.22	–	–	–	–	–	–	significantly downregulated PTP1B’s expression	significantly inhibited ROS generation	117	pronounced dose-dependent inhibition	–	–
CN(C)C(=N)N=C(N)N [metformin, reference compound]	–	–	–	–	–	–	–	–	–	–	–	–	–	–	–	–	–	–	129

More lines, main results first:

Protein Tyrosine Phosphatase 1B Inhibition Type [1]	Ki [1] [µM]	IC50 [1] [µM]	fold more active than decursinol ([1]; versus decursinol of the earlier work, enzyme not named in the sentence (PTP1B and α-glucosidase discussed)) [times]	IC50 [5] [µM]	α-Glucosidase Inhibition Type (yeast α-glucosidase)	IC50 [6] [µM]	Structure (SMILES)	PTP1B expression ([2]; at 10 and 15 µM, 24 h)	inhibition at 5 µM ([3]; Homo sapiens, HepG2, 5 μM, pretreated 1 h, read-out: ROS production, inhibition) [%]	inhibition at 10 µM [3, 8] [%]	inhibition at 15 µM ([3]; Homo sapiens, HepG2, 15 μM, pretreated 1 h, read-out: ROS production, inhibition) [%]	relative glucose uptake percentage ([4]; 15 µM) [%]	ONOO−-mediated albumin nitration ([7]; pretreatment at 5–40 µM)	PTP1B expression ([2]; concentration not given)	ROS generation [3]	relative glucose uptake percentage ([4]; 40 µM) [%]	ONOO−-mediated albumin nitration ([7]; pretreatment at 12.5–100 µM)	PTP1B expression ([2]; at 20 and 40 µM, 24 h)	relative glucose uptake percentage ([4]; 10 µM) [%]
Competitive	9.72	6.17 ± 0.31	–	10.8 ± 0.73	Mixed	3.77 ± 0.15	CC(C)=CC(=O)O[C@@H]1c2cc3ccc(=O)oc3cc2OC(C)(C)[C@H]1O [Pd-C-II]	–	–	–	–	–	–	–	significantly inhibited ROS generation	120	pronounced dose-dependent inhibition	downregulated PTP1B’s expression	–
Competitive	6.21	4.32 ± 0.12	–	6.32 ± 0.41	Mixed	1.82 ± 0.44	CC(C)=CC(=O)O[C@H]1[C@H](O)c2cc3ccc(=O)oc3cc2OC1(C)C [Pd-C-I]	–	–	–	–	–	–	–	significantly inhibited ROS generation	128	pronounced dose-dependent inhibition	downregulated PTP1B’s expression	–
–	–	–	–	3.29 ± 0.26	–	–	Cc1c(C)c2c(c(C)c1O)CCC(C)(C(=O)O)O2 (centres unmarked) [Trolox, trolox, reference compound]	–	–	~49	–	–	–	–	–	–	–	–	–

Source: PMC7919472, “Insulin–Mimetic Dihydroxanthyletin-Type Coumarins from Angelica decursiva with Protein Tyrosine Phosphatase 1B and α-Glucosidase Inhibitory Activities and Docking Studies of Their Molecular Mechanisms” (Antioxidants, 2021)
